The test has as its target T1, Bovine lysyl oxidase (LOX) (Bos taurus, UniProt P33072).
T1 construct: from tissue; host or cells: adult bovine tendon
T1 sequence (P33072 170-418): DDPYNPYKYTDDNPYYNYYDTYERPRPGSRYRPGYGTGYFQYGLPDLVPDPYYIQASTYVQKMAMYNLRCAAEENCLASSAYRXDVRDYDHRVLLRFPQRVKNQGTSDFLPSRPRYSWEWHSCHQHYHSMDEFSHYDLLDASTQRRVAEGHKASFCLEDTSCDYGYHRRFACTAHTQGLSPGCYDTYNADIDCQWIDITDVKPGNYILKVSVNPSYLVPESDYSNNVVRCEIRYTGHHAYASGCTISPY
Nature of the test: LOX inhibition assay (fluorometric, cadaverine/Amplex Red/HRP). The class given is biochemical. The conditions noted are these: IC50 class; bovine tendon LOX, cadaverine substrate; read-out: Activity Range LOX. The procedure, abridged: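 Bovine tendon-extracted LOX was preincubated 30 min at 37 °C with compound. Cadaverine/Amplex Red/HRP was then added and fluorescence (ex530/em600) monitored for 120 min at 37 °C. Progress-curve slopes, background-subtracted against no-protein wells, were normalised to DMSO controls and fitted with a four-parameter variable-slope dose-response model.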
For `CN(C)C(=O)N1C[C@@H](c2ccccc2)C[C@@H](S(=O)(=O)c2cccc(CN)c2)C1.O=C(O)C(F)(F)F` (racemic) [Example 74, cis-3-((3-(Aminomethyl)phenyl)sulfonyl)-N,N-dimethyl-5-phenylpiperidine-1-carboxamide 2,2,2-trifluoroacetate], the IC50 is over 30 µM.
In the case of `NCc1ccnc(S(=O)(=O)N2C[C@@H](C(=O)N3CCOCC3)C[C@@H](c3ccccc3)C2)c1` [Example 133A, ((3S,5S)-1-((4-(aminomethyl)pyridin-2-yl)sulfonyl)-5-phenylpiperidin-3-yl)(morpholino)methanone 2,2,2-trifluoroacetate], the IC50 lay within 1 to 30 µM.
The value for `NCc1ccnc(S(=O)(=O)N2C[C@@H](C(=O)N3CCOCC3)C[C@@H](c3ccccc3)C2)c1` (relative stereo) [Example 133, cis-(1-((4-(Aminomethyl)pyridin-2-yl)sulfonyl)-5-phenylpiperidin-3-yl)(morpholino)methanone 2,2,2-trifluoroacetate] was 1 to 30 µM; that for `CN(C)C(=O)[C@H]1C[C@@H](C2CCCCC2)CN(S(=O)(=O)c2cc(CN)ccn2)C1` (racemic) [Example 144, cis-1-((4-(Aminomethyl)pyridin-2-yl)sulfonyl)-5-cyclohexyl-N,N-dimethylpiperidine-3-carboxamide 2,2,2-trifluoroacetate] was 1 to 30 µM; that for `CS(=O)(=O)[C@@H]1C[C@@H](S(=O)(=O)c2cccc(CN)c2)CN(c2ccccc2)C1` (racemic) [Example 79, trans-(3-((-5-(Methylsulfonyl)-1-phenylpiperidin-3-yl)sulfonyl)phenyl)methanamine] was over 30 µM.
As to `NCc1cccc(S(=O)(=O)N2C[C@@H](C(=O)N3CCOCC3)C[C@@H](C3CCCCC3)C2)c1` (racemic) [Example 139, cis-(1-((3-(Aminomethyl)phenyl)sulfonyl)-5-cyclohexylpiperidin-3-yl)(morpholino)methanone], the IC50 is over 30 µM.
The value for `NCc1ccc(S(=O)(=O)N2C[C@H](C(=O)N3CCS(=O)(=O)CC3)C[C@@H](c3ccccc3)C2)s1.O=C(O)C(F)(F)F` (racemic) [Example 75B, trans-(1-((5-(Aminomethyl)thiophen-2-yl)sulfonyl)-5-phenylpiperidin-3-yl)(1,1-dioxidothiomorpholino)methanone 2,2,2-trifluoroacetate] was at most 0.5 µM; that for `NCc1cccc(S(=O)(=O)N2C[C@H](C(=O)N3CCS(=O)(=O)CC3)C[C@@H](c3ccccc3)C2)n1` (racemic) [Example 115T, trans-(1-((6-(Aminomethyl)pyridin-2-yl)sulfonyl)-5-phenylpiperidin-3-yl)(1,1-dioxidothiomorpholino)methanone 2,2,2-trifluoroacetate] was over 30 µM; that for `NCc1ccc(S(=O)(=O)N2C[C@@H](C(=O)N3CCOCC3)C[C@@H](C3CCCCC3)C2)s1.O=C(O)C(F)(F)F` (racemic) [Example 120, cis-(1-((5-(Aminomethyl)thiophen-2-yl)sulfonyl)-5-cyclohexylpiperidin-3-yl)(morpholino)methanone 2,2,2-trifluoroacetate] was at most 0.5 µM.
Consider `NCc1ccc(S(=O)(=O)N2C[C@H](C(=O)N3CCOCC3)C[C@H](c3ccccc3)C2)s1` [Example 13B, ((3R,5R)-1-((5-(aminomethyl)thiophen-2-yl)sulfonyl)-5-phenylpiperidin-3-yl)(morpholino)methanone], for which the IC50 is at most 0.5 µM.
Turning to `NCc1ccnc(S(=O)(=O)N2C[C@@H](C(=O)N3CCS(=O)(=O)CC3)C[C@@H](c3ccccc3)C2)c1` (racemic) [Example 134, cis-(1-((4-(Aminomethyl)pyridin-2-yl)sulfonyl)-5-phenylpiperidin-3-yl)(1,1-dioxidothiomorpholino)methanone 2,2,2-trifluoroacetate], the IC50 is 1 to 30 µM.
Next, `NCc1cccc(S(=O)(=O)N2C[C@@H](C(=O)N3CCS(=O)(=O)CC3)C[C@@H](C3CCCCC3)C2)c1` (racemic) [Example 140, cis-(1-((3-(Aminomethyl)phenyl)sulfonyl)-5-cyclohexylpiperidin-3-yl)(1,1-dioxidothiomorpholino)methanone]: over 30 µM; `CS(=O)(=O)[C@H]1C[C@@H](S(=O)(=O)c2cccc(CN)c2)CN(c2ccccc2)C1` (racemic) [Example 23, cis-(3-((-5-(Methylsulfonyl)-1-phenylpiperidin-3-yl)sulfonyl)phenyl)methanamine]: over 30 µM; `CN(C)C(=O)[C@H]1C[C@@H](C2CCCCC2)CN(S(=O)(=O)c2cccc(CN)c2)C1` (relative stereo) [Example 138, cis-1-((3-(Aminomethyl)phenyl)sulfonyl)-5-cyclohexyl-N,N-dimethylpiperidine-3-carboxamide 2,2,2-trifluoroacetate]: over 30 µM.
With `NCc1ccnc(S(=O)(=O)N2C[C@@H](C(=O)N3CCS(=O)(=O)CC3)C[C@@H](C3CCCCC3)C2)c1.O=C(O)C(F)(F)F` (racemic) [Example 146, cis-(1-((4-(Aminomethyl)pyridin-2-yl)sulfonyl)-5-cyclohexylpiperidin-3-yl)(1,1-dioxidothiomorpholino)methanone 2,2,2-trifluoroacetate], the IC50 was in the range of 1 to 30 µM.
Turning to `CS(=O)(=O)[C@H]1C[C@@H](S(=O)(=O)c2cccc(CN)c2)CN(c2ccccc2F)C1` (racemic) [Example 92, cis-(3-((-1-(2-Fluorophenyl)-5-(methylsulfonyl)piperidin-3-yl)sulfonyl)phenyl)methanamine 2,2,2-trifluoroacetate], the IC50 is over 30 µM.
For the compound `CS(=O)(=O)N1CCN(C(=O)[C@H]2C[C@@H](c3ccccc3F)CN(S(=O)(=O)c3ccc(CN)s3)C2)CC1.O=C(O)C(F)(F)F` (racemic) [Example 91, cis-(1-((5-(Aminomethyl)thiophen-2-yl)sulfonyl)-5-(2-fluorophenyl)piperidin-3-yl)(4-(methylsulfonyl)piperazin-1-yl)methanone 2,2,2-trifluoroacetate], the IC50 is at most 0.5 µM.
On to `NCc1ccnc(S(=O)(=O)N2C[C@@H](C(=O)N3CCOCC3)C[C@@H](C3CCCCC3)C2)c1` (racemic) [Example 145, cis-(1-((4-(Aminomethyl)pyridin-2-yl)sulfonyl)-5-cyclohexylpiperidin-3-yl)(morpholino)methanone 2,2,2-trifluoroacetate], for which the IC50 is 1 to 30 µM.
With `CS(=O)(=O)N1C[C@H](Oc2cccc(CN)c2)C[C@H](c2ccccc2F)C1` (racemic) [Example 70, cis-(3-((5-(2-Fluorophenyl)-1-(methylsulfonyl)piperidin-3-yl)oxy)phenyl)methanamine 2,2,2-trifluoroacetate], the IC50 is over 30 µM.
The value for `NCc1ccnc(S(=O)(=O)N2C[C@H](C(=O)N3CCOCC3)C[C@H](c3ccccc3)C2)c1` [Example 133B, ((3R,5R)-1-((4-(aminomethyl)pyridin-2-yl)sulfonyl)-5-phenylpiperidin-3-yl)(morpholino)methanone 2,2,2-trifluoroacetate] was 1 to 30 µM; that for `NCc1cccc(S(=O)(=O)N2C[C@H](C(=O)N3CCS(=O)(=O)CC3)C[C@@H](c3ccccc3)C2)c1` (racemic) [Example 85, trans-(1-((3-(Aminomethyl)phenyl)sulfonyl)-5-phenylpiperidin-3-yl)(1,1-dioxidothiomorpholino)methanone 2,2,2-trifluoroacetate] was over 30 µM.

These data come from patent publication US20230310445A1, “LOX ENZYME INHIBITING METHODS AND COMPOSITIONS” (ANOVIA BIOSCIENCES, INC., priority 2020, published 2023).
